One data set deals with Carbonic anhydrase 4 (Homo sapiens, UniProt P22748).
The test system of data set [1] is Oryctolagus cuniculus. Kind of data set: Compound was evaluated in vivo in normotensive rabbits (23.5+/-2.6 mmHg) for the intraocular pressure (IOP) lowering 30 min after topical administration with one drop of Carbonic anhydrase inhibitor at a pH 7.0. The data set is classed as functional, Eye.
The test system of data set [2] is Oryctolagus cuniculus. Kind of data set: Compound was evaluated in vivo in normotensive rabbits (23.5+/-2.6 mmHg) for the intraocular pressure (IOP) lowering 90 min after topical administration with one drop of Carbonic hydrase inhibitor at a pH 7.5. The data set is classed as functional, Eye.
For another data set, the target named is Carbonic anhydrase 1 (Homo sapiens, UniProt P00915).
Carbonic anhydrase 1, sequence (P00915 whole entry): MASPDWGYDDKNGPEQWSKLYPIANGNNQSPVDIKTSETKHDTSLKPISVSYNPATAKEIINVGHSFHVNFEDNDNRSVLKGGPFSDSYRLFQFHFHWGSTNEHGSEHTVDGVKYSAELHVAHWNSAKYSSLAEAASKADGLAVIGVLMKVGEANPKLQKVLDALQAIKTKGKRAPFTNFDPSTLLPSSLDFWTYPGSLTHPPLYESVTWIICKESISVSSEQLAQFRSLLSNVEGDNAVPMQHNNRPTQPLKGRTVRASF
For data set [3], the system named is Oryctolagus cuniculus. Kind of data set: In vivo activity in normotensive rabbits (23.5+/-2.6 mmHg) for the intraocular pressure (IOP) lowering 90 min after topical administration with one drop of Carbonic anhydrase inhibitor at a pH 7. The data set is classed as functional, Eye.
Data set [4] concerns Oryctolagus cuniculus. Kind of data set: In vivo activity in glaucomatous rabbits (33.5+/-3.0 mmHg) for the intraocular pressure (IOP) lowering 90 min after topical administration with one drop of Carbonic anhydrase at a pH 7.0. The data set is classed as functional, Eye.
The test system of data set [5] is Oryctolagus cuniculus. Kind of data set: In vivo activity in normotensive rabbits (23.5+/-2.6 mmHg) for the intraocular pressure (IOP) lowering 30 min after topical administration with one drop of Carbonic anhydrase inhibitor at a pH 7. The format is functional, Eye.
For data set [6], the system named is Oryctolagus cuniculus. Kind of data set: In vivo activity in glaucomatous rabbits (33.5+/-3.0 mmHg) for the intraocular pressure (IOP) lowering 30 min after topical administration with one drop of Carbonic anhydrase at a pH 7.0. The format is functional, Eye.
The test system of data set [7] is Oryctolagus cuniculus. Kind of data set: In vivo activity in normotensive rabbits (23.5+/-2.6 mmHg) for the intraocular pressure (IOP) lowering 60 min after topical administration with one drop of Carbonic anhydrase inhibitor at a pH 7. The format is functional, Eye.
Test in data set [8]: not given
The source holds these as a separate data set.

The conditions of data set [9]: octanol/water.
Data set [10] concerns Oryctolagus cuniculus. Kind of data set: In vivo activity in normotensive rabbits (23.5+/-2.6 mmHg) for the intraocular pressure (IOP) lowering 60 min after topical administration with one drop of Carbonic anhydrase inhibitor at a pH 7.0. The format is functional, Eye.
The subject of data set [11] is Oryctolagus cuniculus. Kind of data set: In vivo activity in normotensive rabbits (23.5+/-2.6 mmHg) for the intraocular pressure (IOP) lowering 30 min after topical administration with one drop of Carbonic anhydrase inhibitor at a pH 7.0. The format is functional, Eye.
In data set [12] the test system is Oryctolagus cuniculus. Kind of data set: Compound was evaluated in vivo in normotensive rabbits (23.5+/-2.6 mmHg) for the intraocular pressure (IOP) lowering 90 min after topical administration with one drop of Carbonic anhydrase inhibitor at a pH 7. The data set is classed as functional, Eye.
For data set [13], the system named is Oryctolagus cuniculus. Kind of data set: In vivo activity in normotensive rabbits (23.5+/-2.6 mmHg) for the intraocular pressure (IOP) lowering 90 min after topical administration with one drop of Carbonic anhydrase inhibitor at a pH 7.4. The format is functional, Eye.
For data set [14], the system named is Oryctolagus cuniculus. Kind of data set: In vivo activity in normotensive rabbits (23.5+/-2.6 mmHg) for the intraocular pressure (IOP) lowering 60 min after topical administration with one drop of Carbonic anhydrase inhibitor at a pH 7.4. The data set is classed as functional, Eye.
Data set [15] concerns Oryctolagus cuniculus. Kind of data set: In vivo activity in normotensive rabbits (23.5+/-2.6 mmHg) for the intraocular pressure (IOP) lowering 30 min after topical administration with one drop of Carbonic anhydrase inhibitor at a pH 7.4. The data set is classed as functional, Eye.

In general, Ki refers to a measure of affinity in units of concentration, obtained from inhibition or displacement. A low value points to higher affinity. The logD is the decadic logarithm of the distribution of all forms, ionised or not, between an organic phase and buffer at a given pH. Low values mean a more hydrophilic compound, high ones a more lipophilic compound.

Carbonic anhydrase 4, sequence (P22748 whole entry): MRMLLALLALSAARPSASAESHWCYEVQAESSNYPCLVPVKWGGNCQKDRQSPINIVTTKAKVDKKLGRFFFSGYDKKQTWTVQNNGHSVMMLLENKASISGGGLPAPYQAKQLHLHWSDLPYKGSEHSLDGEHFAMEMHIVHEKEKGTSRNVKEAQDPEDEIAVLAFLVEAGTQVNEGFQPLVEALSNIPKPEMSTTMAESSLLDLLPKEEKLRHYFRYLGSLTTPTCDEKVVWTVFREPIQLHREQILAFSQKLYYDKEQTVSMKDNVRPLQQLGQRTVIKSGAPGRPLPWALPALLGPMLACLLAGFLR

On to `NS(=O)(=O)c1nnc(NC(=O)CN(CCN(CCN(CC(=O)O)CC(=O)Nc2nnc(S(N)(=O)=O)s2)CC(=O)[O-])CC(=O)[O-])s1.[Zn+2]`, for which the affinity on Carbonic anhydrase 4 corresponds to a Ki of 4 nM. The “Change in IOP” value worked out at 7.4 mmHg with Oryctolagus cuniculus [1] and 9.5 mmHg in the data set on Oryctolagus cuniculus [2].

In the case of `NS(=O)(=O)c1ccc(NC(=O)CN(CCN(CCN(CC(=O)O)CC(=O)O)CC(=O)O)CC(=O)O)c(Cl)c1`, the Ki at Carbonic anhydrase 1 turned out to be 200 nM; at Carbonic anhydrase 4, 32 nM.

`NS(=O)(=O)c1nnc(NC(=O)CCNC(=O)CN(CCN(CCN(CC(=O)O)CC(=O)O)CC(=O)O)CC(=O)O)s1`: the Ki came out at 110 nM at Carbonic anhydrase 1 and 16 nM on Carbonic anhydrase 4.

`NS(=O)(=O)c1ccc(CCOC(=O)CN(CCN(CCN(CC(=O)O)CC(=O)OCCc2ccc(S(N)(=O)=O)cc2)CC(=O)O)CC(=O)O)cc1`: the Ki on Carbonic anhydrase 1 was found to be 290 nM; at Carbonic anhydrase 4 it was 115 nM.

Turning to `NS(=O)(=O)c1nc2ccc(OCCOC(=O)CN(CCN(CCN(CC(=O)O)CC(=O)O)CC(=O)O)CC(=O)O)cc2s1`, the Ki at Carbonic anhydrase 1 is 30 nM; at Carbonic anhydrase 4, 5 nM.

Regarding `NS(=O)(=O)c1cccc(NC(=O)CN(CCN(CCN(CC(=O)O)CC(=O)O)CC(=O)O)CC(=O)O)c1`, the Ki on Carbonic anhydrase 1 stood at 7200 nM; on Carbonic anhydrase 4 it was 500 nM.

As to `Cn1nc(S(N)(=O)=O)s/c1=N/C(=O)CN(CCN(CCN(CC(=O)O)CC(=O)O)CC(=O)O)CC(=O)O`, the Ki at Carbonic anhydrase 1 is 62 nM; on Carbonic anhydrase 4, 19 nM.

In the case of `NS(=O)(=O)c1ccc(NC(=O)CN(CCN(CCN(CC(=O)O)CC(=O)Nc2ccc(S(N)(=O)=O)cc2Br)CC(=O)O)CC(=O)O)c(Br)c1`, the Ki on Carbonic anhydrase 1 came to 79 nM; on Carbonic anhydrase 4, 21 nM.

Regarding `NS(=O)(=O)c1nc2ccc(OC(=O)CN(CCN(CCN(CC(=O)O)CC(=O)O)CC(=O)O)CC(=O)O)cc2s1`, the inhibitory constant (Ki) was 32 nM on Carbonic anhydrase 1 and 6 nM on Carbonic anhydrase 4.

`NS(=O)(=O)c1ccc(NC(=O)CN(CCN(CCN(CC(=O)O)CC(=O)O)CC(=O)O)CC(=O)O)c(Br)c1`: the Ki on Carbonic anhydrase 1 came to 96 nM; at Carbonic anhydrase 4 it was 27 nM.

Regarding `Cn1nc(S(N)(=O)=O)s/c1=N\C(=O)CN(CCN(CCN(CC(=O)O)CC(=O)/N=c1/sc(S(N)(=O)=O)nn1C)CC(=O)O)CC(=O)O`, the Ki worked out at 54 nM on Carbonic anhydrase 1 and 9 nM on Carbonic anhydrase 4.

In the case of `NS(=O)(=O)c1ccc(NC(=O)CN(CCN(CCN(CC(=O)O)CC(=O)Nc2ccc(S(N)(=O)=O)cc2)CC(=O)O)CC(=O)O)cc1`, the Kin stood at 3.6 h⁻¹. The “Change in IOP” value in the data set with Oryctolagus cuniculus [3] is 9.5 mmHg. At Carbonic anhydrase 4, this molecule showed a Ki of 156 nM. Moreover, the “Change in IOP” value in the data set on Oryctolagus cuniculus [4] amounted to 11 mmHg. Further, the “Change in IOP” value in the data set with Oryctolagus cuniculus [5] amounted to 4.4 mmHg. For the same molecule, the “Change in IOP” value with Oryctolagus cuniculus [6] is 6 mmHg. For the same molecule, the “Change in IOP” value with Oryctolagus cuniculus [7] was determined as 7.5 mmHg. For the same molecule, the Kin in data set [8] was determined as 6.5 h⁻¹. The molecule further registered a logD in [9] of 1.456.

Consider `NS(=O)(=O)c1ccc(NNC(=O)CN(CCN(CCN(CC(=O)O)CC(=O)O)CC(=O)O)CC(=O)O)cc1`, for which the Ki was found to be 12000 nM at Carbonic anhydrase 1 and 630 nM at Carbonic anhydrase 4.

For `NS(=O)(=O)c1ccc(NC(=O)CN(CCN(CCN(CC(=O)O)CC(=O)O)CC(=O)O)CC(=O)O)cc1`, the Ki at Carbonic anhydrase 1 was 4100 nM; on Carbonic anhydrase 4, 180 nM. The “Change in IOP” value in the data set with Oryctolagus cuniculus [10] is given as 4.5 mmHg; with Oryctolagus cuniculus [11], 3.1 mmHg; in the data set on Oryctolagus cuniculus [12], 7.2 mmHg.

With `NS(=O)(=O)c1cc(S(N)(=O)=O)c(NC(=O)CN(CCN(CCN(CC(=O)O)CC(=O)O)CC(=O)O)CC(=O)O)c(Cl)c1Cl`, the Ki on Carbonic anhydrase 1 was 58 nM; at Carbonic anhydrase 4 it was 36 nM.

In the case of `NS(=O)(=O)c1ccc(NC(=O)CN(CCN(CCN(CC(=O)O)CC(=O)Nc2ccc(S(N)(=O)=O)cc2I)CC(=O)O)CC(=O)O)c(I)c1`, the results for the Ki at Carbonic anhydrase 1 and on Carbonic anhydrase 4 were 70 nM and 24 nM, respectively.

As to `NS(=O)(=O)c1ccccc1NC(=O)CN(CCN(CCN(CC(=O)O)CC(=O)O)CC(=O)O)CC(=O)O`, the inhibition constant Ki came out at 8600 nM on Carbonic anhydrase 1 and 550 nM on Carbonic anhydrase 4.

In the case of `NS(=O)(=O)c1nc2ccc(NC(=O)CN(CCN(CCN(CC(=O)O)CC(=O)O)CC(=O)O)CC(=O)O)cc2s1`, the Ki at Carbonic anhydrase 1 was 36 nM; at Carbonic anhydrase 4, 9 nM.

For `NS(=O)(=O)c1ccc(CCOC(=O)CN(CCN(CCN(CC(=O)O)CC(=O)O)CC(=O)O)CC(=O)O)cc1`, the Ki at Carbonic anhydrase 1 stood at 360 nM; on Carbonic anhydrase 4, 190 nM.

For the molecule `NS(=O)(=O)c1nc2ccc(OC(=O)CN(CCN(CCN(CC(=O)O)CC(=O)Oc3ccc4nc(S(N)(=O)=O)sc4c3)CC(=O)O)CC(=O)O)cc2s1`, the inhibition constant (Ki) at Carbonic anhydrase 1 stood at 21 nM; at Carbonic anhydrase 4 it was 5 nM.

With `NS(=O)(=O)c1ccc(NC(=O)CN(CCN(CCN(CC(=O)O)CC(=O)O)CC(=O)O)CC(=O)O)c(I)c1`, the Ki was found to be 79 nM at Carbonic anhydrase 1 and 29 nM on Carbonic anhydrase 4.

Take `NS(=O)(=O)c1ccc(CNC(=O)CN(CCN(CCN(CC(=O)O)CC(=O)O)CC(=O)O)CC(=O)O)cc1`: the values for the Ki at Carbonic anhydrase 1 and at Carbonic anhydrase 4 were 550 nM and 40 nM, respectively.

Consider `NS(=O)(=O)c1ccc(CCNC(=O)CN(CCN(CCN(CC(=O)O)CC(=O)O)CC(=O)O)CC(=O)O)cc1`, for which the Ki stood at 290 nM at Carbonic anhydrase 1 and 36 nM at Carbonic anhydrase 4.

Take `NS(=O)(=O)c1ccc(COC(=O)CN(CCN(CCN(CC(=O)O)CC(=O)OCc2ccc(S(N)(=O)=O)cc2)CC(=O)O)CC(=O)O)cc1`: the Ki at Carbonic anhydrase 1 was 325 nM; at Carbonic anhydrase 4 it was 170 nM.

`NS(=O)(=O)c1nnc(NC(=O)CN(CCN(CCN(CC(=O)O)CC(=O)O)CC(=O)O)CC(=O)O)s1` returned a Kin of 4.3 h⁻¹. Also, the “Change in IOP” value in the data set with Oryctolagus cuniculus [13] is 4.5 mmHg. The “Change in IOP” value in the data set on Oryctolagus cuniculus [14] is given as 6.8 mmHg. The molecule further showed a Ki at Carbonic anhydrase 1 of 55 nM. The same molecule had a Ki at Carbonic anhydrase 4 of 28 nM. Besides, the “Change in IOP” value in the data set on Oryctolagus cuniculus [15] was 3.1 mmHg. In data set [8], the Kin came to 8.1 h⁻¹.

On to `NS(=O)(=O)c1nnc(NC(=O)CN(CCN(CCN(CC(=O)O)CC(=O)Nc2nnc(S(N)(=O)=O)s2)CC(=O)O)CC(=O)O)s1`, for which the Kin was 3.9 h⁻¹. Also, on Carbonic anhydrase 4, the affinity corresponds to a Ki of 7 nM. In [8], this molecule had a Kin of 6.2 h⁻¹. In [9], this molecule returned a logD of 1.961.

Regarding `NS(=O)(=O)c1cc(S(N)(=O)=O)c(NC(=O)CN(CCN(CCN(CC(=O)O)CC(=O)O)CC(=O)O)CC(=O)O)cc1Cl`, the Ki was 87 nM on Carbonic anhydrase 1 and 52 nM at Carbonic anhydrase 4.

Consider `NS(=O)(=O)c1ccc(NC(=O)CN(CCN(CCN(CC(=O)O)CC(=O)O)CC(=O)O)CC(=O)O)c(F)c1`, for which the figures for the Ki at Carbonic anhydrase 1 and on Carbonic anhydrase 4 were 180 nM and 29 nM, respectively.

For the molecule `NS(=O)(=O)c1ccc(COC(=O)CN(CCN(CCN(CC(=O)O)CC(=O)O)CC(=O)O)CC(=O)O)cc1`, the Ki on Carbonic anhydrase 1 is 510 nM; at Carbonic anhydrase 4 it was 265 nM.
